According to the supplement of paper PMC11997997:

Legend:
[1] = tested on: Mycobacterium tuberculosis CDC1551 (intracellular, in murine BMDM); assay: area under intracellular growth-inhibition dose-response curve (AUC (% inhibition x dose, relative)); higher = more potent; settings: duration: 6 days; dose range: 0.13-80 uM, 8 points
In short: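 Primary murine bone marrow-derived macrophages in 384-well opaque plates were infected 24 h after seeding with luciferase-expressing M. tuberculosis CDC1551 at multiplicity of infection 1 for 1 h. They were then treated with an 8-dose, 2.5-fold series (final 80–0.13 μM) for 6 days. Growth was read by Bright-Glo luciferin assay and normalised to a reference drug control and the lowest-concentration wells. The value is the area under the growth-inhibition dose–response curve, calculated in GraphPad Prism.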

[2] = tested on: murine bone marrow-derived macrophages; assay: area under cytotoxicity dose-response curve (AUC (% cytotoxicity x dose, relative)); higher = more cytotoxic; settings: duration: 6 days; dose range: 0.13-80 uM, 8 points
In short: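 Using opaque 384-well plates, primary murine bone marrow-derived macrophages were treated for 6 days at 37 °C in 5% CO2 with an 8-point, 2.5-fold dilution series spanning final concentrations of 80–0.13 μM. After CellTiter-Glo (Promega) luminescence readout of viability, percent cytotoxicity was normalised to vehicle and positive control wells. The reported value is the area under the dose–response curve for cytotoxicity, derived in GraphPad Prism version 10.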

Structure (SMILES) | area under intracellular growth-inhibition dose-response curve [1] | area under cytotoxicity dose-response curve [2]
NC1CCN(c2c(F)cc3c(=O)c(C(=O)O)cn(C4CC4)c3c2Cl)C1 (centres undefined) | 210 | < 0
CC(=O)O[C@H]1C[C@@]2(C)[C@@H](C[C@@H](O)[C@H]3[C@@]4(C)CC[C@@H](O)[C@@H](C)[C@@H]4CC[C@@]32C)/C1=C(\CCC=C(C)C)C(=O)[O-].[Na+] | 182 | 74.7
COc1ccc(/C=N/Nc2nc(-c3ccc(C)cc3)c(NC(C)=O)s2)cc1 | 272 | < 0
Cc1cc2oc(=O)cc(-c3ccccc3)c2c(C)c1-c1ccc(C#N)cc1 | 272 | 110
Cc1ccccc1NC(=O)COC(=O)c1cc(S(=O)(=O)N2CCOCC2)ccc1C | 34.5 | 23.2
Cc1oc(-c2cccs2)nc1CSCC(=O)N1CCC2(CC1)OCCO2 | 48.9 | 37.4
COc1ccc(C(=O)C(C)OC(=O)CNC(=O)c2ccco2)cc1 (centres undefined) | 166 | < 0
C=C1C(=O)O[C@@H]2C[C@@H](C)[C@@H]3C=CC(=O)[C@@]3(C)[C@@H](OC(=O)CC(=O)O[C@H]3[C@@H]4C(=C)C(=O)O[C@@H]4C[C@@H](C)[C@@H]4C=CC(=O)[C@]43C)[C@H]12 | 87.6 | 35
O=C(NNC(=O)C1CCCC1)c1cc([N+](=O)[O-])cc([N+](=O)[O-])c1 | 109 | 12.3
COc1c(N2CCN(C(=S)NC3CC4CCC3C4)C(C)C2)c(F)cc2c(=O)c(C(=O)O)cn(C3CC3)c12 (centres undefined) | 239 | 8.11
CC(=O)Nc1sc(N/N=C/c2ccc(O)cc2)nc1-c1ccc(C)cc1 | 181 | 84.1
CCCCCNC(=O)CCc1ccccc1 | 130 | < 0
O=C(N/N=C/C=C/c1ccccc1)c1ccncc1 | 266 | < 0
CCOC(=O)c1cnc(-n2nc(C)cc2C)nc1NCCc1ccccc1 | 247 | 21.7
Cc1c(Cl)cccc1NC(=S)NCC(O)c1ccccc1 (centres undefined) | 158 | 81.9
COc1c(N2CCN(C(=S)NCc3ccccc3)C(C)C2)c(F)cc2c(=O)c(C(=O)O)cn(C3CC3)c12 (centres undefined) | 165 | < 0
CCCCCCNC(=O)c1ccc(Br)o1 | 225 | < 0
